Assay results published in the supplement of paper PMC10307832.

Experiments:
Assay in all cases: relative viability (nuclei count vs DMSO), 5 days (fraction); higher = more cells survive
Apatinib + Navitoclax = compound: N#CC1(c2ccc(NC(=O)c3cccnc3NCc3ccncc3)cc2)CCCC1 [Apatinib] + CC1(C)CCC(c2ccc(Cl)cc2)=C(CN2CCN(c3ccc(C(=O)NS(=O)(=O)c4ccc(N[C@H](CCN5CCOCC5)CSc5ccccc5)c(S(=O)(=O)C(F)(F)F)c4)cc3)CC2)C1 [Navitoclax] (partner 0.5 µM)
Summary of the method: (§1)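 Lung cancer cell lines were pin-tool dosed in 1536-well plates on the day after seeding, with either a lone drug or a fixed anchor-drug dose plus five library-drug doses (not always all listed) in √10 steps. Nuclei were counted on 4× images after 5 days. Relative viability is the ratio of treated-well to vehicle-well nuclei counts, with each value a median of duplicate plates.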

Apatinib + Trametinib = compound: N#CC1(c2ccc(NC(=O)c3cccnc3NCc3ccncc3)cc2)CCCC1 [Apatinib] + CC(=O)Nc1cccc(-n2c(=O)n(C3CC3)c(=O)c3c(Nc4ccc(I)cc4F)n(C)c(=O)c(C)c32)c1 [Trametinib] (partner 0.02 µM)
Summary of the method: as §1

Metformin + Foretinib = compound: CN(C)C(=N)NC(=N)N [Metformin] + COc1cc2c(Oc3ccc(NC(=O)C4(C(=O)Nc5ccc(F)cc5)CC4)cc3F)ccnc2cc1OCCCN1CCOCC1 [Foretinib] (partner 0.25 µM)
Summary of the method: as §1

Metformin + Vorinostat = compound: CN(C)C(=N)NC(=N)N [Metformin] + O=C(CCCCCCC(=O)Nc1ccccc1)NO [Vorinostat] (partner 1 µM)
Summary of the method: as §1

Row | Cell Line | relative viability (Apatinib + Navitoclax; first compound 0.08 µM) | relative viability (Apatinib + Navitoclax; first compound 0.253 µM) | relative viability (Apatinib + Navitoclax; first compound 0.8 µM) | relative viability (Apatinib + Navitoclax; first compound 2.53 µM) | relative viability (Apatinib + Navitoclax; first compound 8 µM) | relative viability (Apatinib + Trametinib; first compound 0.08 µM) | relative viability (Apatinib + Trametinib; first compound 0.253 µM) | relative viability (Apatinib + Trametinib; first compound 0.8 µM) | relative viability (Apatinib + Trametinib; first compound 2.53 µM) | relative viability (Apatinib + Trametinib; first compound 8 µM) | relative viability (Metformin + Foretinib; first compound 10 µM) | relative viability (Metformin + Foretinib; first compound 31.62 µM) | relative viability (Metformin + Foretinib; first compound 100 µM) | relative viability (Metformin + Foretinib; first compound 316.23 µM) | relative viability (Metformin + Foretinib; first compound 1000 µM) | relative viability (Metformin + Vorinostat; first compound 10 µM) | relative viability (Metformin + Vorinostat; first compound 31.62 µM) | relative viability (Metformin + Vorinostat; first compound 100 µM) | relative viability (Metformin + Vorinostat; first compound 316.23 µM) | relative viability (Metformin + Vorinostat; first compound 1000 µM)
1 | NCI-H1755 | 1 | 0.968 | 0.963 | 0.952 | 0.865 | 0.826 | 0.746 | 0.725 | 0.825 | 0.652 | 0.757 | 0.789 | 0.778 | 0.742 | 0.816 | 0.579 | 0.629 | 0.711 | 0.657 | 0.763
2 | 201T | 1.2 | 1.24 | 1.19 | 1.27 | 1.18 | 0.731 | 0.725 | 0.68 | 0.729 | 0.607 | – | 1.21 | 1.38 | 1.01 | 0.824 | – | 1.02 | 0.972 | 0.98 | 1.03
3 | NCI-H838 | 1.25 | 1.27 | 1.09 | 1.12 | 1.05 | 0.626 | 0.573 | 0.473 | 0.49 | 0.467 | 1.04 | 1.13 | 1.07 | 0.984 | 0.996 | 0.645 | 0.586 | 0.675 | 0.569 | 0.654
4 | HOP-62 | 1.04 | 1.01 | 1.01 | 0.859 | 0.878 | 0.411 | 0.395 | 0.36 | 0.422 | 0.394 | 0.882 | 1.08 | 1.08 | 0.985 | 1 | 0.425 | 0.705 | 0.699 | 0.456 | 0.738
5 | LC-2-ad | 0.414 | 0.457 | 0.387 | 0.287 | 0.235 | 0.94 | 0.926 | 0.907 | 0.678 | 0.659 | – | 0.788 | 0.923 | 0.692 | 0.624 | – | 0.64 | 0.657 | 0.596 | 0.803
6 | NCI-H2170 | 0.617 | 0.646 | 0.568 | 0.599 | 0.498 | 0.942 | 0.881 | 0.857 | 0.822 | 0.737 | 0.951 | 1.02 | 0.915 | 0.95 | 0.965 | 0.55 | 0.777 | 0.79 | 0.813 | 0.795
7 | LCLC-97TM1 | 0.485 | 0.401 | 0.369 | 0.397 | 0.18 | 0.221 | 0.221 | 0.179 | 0.231 | 0.182 | 0.912 | 0.808 | 0.875 | 0.895 | 1.02 | – | 0.675 | 0.711 | 0.601 | 0.704
8 | NCI-H1993 | 1.13 | 0.822 | 0.813 | 0.688 | 0.772 | 0.436 | 0.579 | 0.538 | 0.493 | 0.461 | 0.964 | 1.02 | 0.912 | 0.836 | 1.06 | 0.585 | 0.6 | 0.646 | 0.608 | 0.921
9 | NCI-H520 | 1.21 | 1.14 | 0.982 | 1.02 | 0.857 | 0.666 | 0.66 | 0.787 | 0.485 | 0.325 | 0.765 | 0.74 | 0.783 | 0.703 | 0.953 | 0.748 | 0.757 | 0.84 | 0.714 | 0.763
